Patent US12077501B2, “Compounds and compositions for intracellular delivery of agents” (ModernaTX, Inc., priority 2017, dated 2024)
Values belong to the compound of their own block, whether it stands above or below them.

Legend:
[1] = test system: hEPO; assay: hEPO expression in rats after i.v. administration of nanoparticle compositions (FIGS. 8A, 8B); assay type: in vivo, rat; details: rats, 2 mpk, i.v. administration (FIG. 8A)
Text: PBS (phosphate buffered saline) is used as control. FIG. 8A compares the hEPO concentration after administration of nanoparticle compositions containing Compound 23, Compound 11, KL22, and MC3 at 2 mpk, i.v. administration. […] FIG. 8B illustrates the results of a dose response study using Compound 20, KL22, and MC3 at dose of 0.2, 0.5 and 1 mpk. […] In FIG. 8A, the numbers 1-5 refer to compositions containing the following: 1: Compound 23, 2: Compound 11, 3: KL22; 4: MC3; 5: PBS. In FIG. 8B, the numbers […] refer to compositions containing the following: 1: Compound 20, 0.2 mpk; 2: Compound 20, 0.5 mpk; 3: Compound 20, 1 mpk; 4: KL22, 0.2 mpk; 5: KL22, 0.5 mpk; 6: KL22, 1 mpk; 7: MC3, 0.2 mpk; 8: MC3, 0.5 mpk; 9: MC3, 1 mpk; 10: PBS.

[2] = test system: rats; assay: Tolerability / toxicity in rats (FIGS. 8A, 8B); assay type: in vivo
[3] = test system: luciferase; assay: Luciferase expression in LDLR −/− knockout and wild-type mice (FIG. 9A); assay type: in vivo, mouse; details: 0.05 mpk, 0.25 mpk and 0.5 mpk (FIG. 9A)
Text: FIG. 9A is a bar graph showing expression of luciferase induced by administration of nanoparticle compositions including Compound 11 at dosages of 0.05 mpk, 0.25 mpk, and 0.5 mpk to LDLR −/− knockout and wild-type mice.

[4] = test system: LDL-c; assay: LDL-c levels in LDLR knockout mice after mRNA encoding the LDL receptor (FIG. 9B); assay type: in vivo, mouse; details: mRNAs encoding the LDL receptor, Compound 11 at 0.5 and 1 mpk (FIG. 9B)
[5] = test system: hEPO expression; assay: Expression of hEPO in rats induced by nanoparticle compositions; assay type: in vivo, S.D. rats; details: rats, 3, 6 and 24 hours
Protocol: Formulations were administered intravenously, subcutaneously or intramuscularly to rats (n=3 or 6) at a dosage of 0.2 mg/kg or 0.5 mg/kg (mpk) and hEPO levels measured at 3, 6, and 24 hour time points. After the 48 hour time point, livers and spleens were harvested and frozen.
(§1) In contrast, hEPO expression in rats induced by administration of a nanoparticle composition including a compound according to one of formulae (I), (Ia1)-(Ia6), (Ib), (II), (IIa), (III), and (IIIa) was substantially […] than that measured for MC3. […] Tables 7c and 7d show additional protein expressions and clearance data from compositions with various compounds disclosed herein as compared to with MC3. Tables 7e, 7f and 7g show hEPO expression data in CD-1 mice at a dose of 0.5 mpk.

[6] = test system: luciferase expression; assay: Expression of Luc in different organs (liver, lung, spleen, femur), bioluminescence; assay type: in vivo; details: mice, intravenous, 0.5 mpk, 6 hours
Protocol: The efficacy of the nanoparticle compositions presented in Tables 1, la, 17-1, 19-1, 20-1 and 21-1 was further evaluated by measuring the expression of modified luciferase in the liver, lung, spleen, and femur upon administration of a given composition. Formulations were administered intravenously to mice (n=3) at a dosage of 0.5 mpk and bioluminescence measured after 6 hours. The standard MC3 formulation and a PBS control were also tested.

[7] = test system: Luc expression; assay: Luc expression in CD-1 mice compared with MC3; assay type: in vivo; details: ratio to MC3, Table 7a
Text: as §1

[8] = Purity at start and after storage for 65 h at 25 °C or 37 °C; assay type: physicochemical
[9] = Particle size and polydispersity index of nanoparticle compositions (Zetasizer Nano ZS); assay type: physicochemical
Protocol: A Zetasizer Nano ZS (Malvem Instruments Ltd, Malvem, Worcestershire, UK) can be used to determine the particle size, the polydispersity index (PDI) and the zeta potential of the nanoparticle compositions in 1×PBS in determining particle size and 15 mM PBS in determining zeta potential.

[10] = Encapsulation efficiency of RNA (QUANT-IT RIBOGREEN RNA assay); assay type: physicochemical
Outline: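 Samples diluted to about 5 μg/mL RNA in TE buffer pH 7.5, treated with buffer or 2% Triton X-100 for 15 min at 37° C, then stained with RiboGreen (1:100). Fluorescence at about 480/520 nm, blank-subtracted; free RNA fraction is intact over Triton-disrupted signal.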

[11] = test system: hEPO expression; assay: hEPO (miR126 + miR142) mRNA expression, Tables 8b-8e; assay type: in vivo
[12] = Lipid clearance: % dose remaining, Tables 7c and 8b-8e (species not given); assay type: in vivo
Text: as §1

[13] = test system: hepatocytes and Kupffer cells; assay: Mouse liver immunohistochemistry (IHC) with GFP mRNA (FIGS. 11A, 11B); assay type: in vivo; details: CD-1 mouse liver, 6h after intravenous administration, 0.5 mpk (FIG. 11A)
Text: FIGS. 11A and 11B are a pair of images comparing the results of a mouse liver immunohistochemistry (IHC) using mRNA expressing green fluorescent protein (GFP) after administration of nanoparticle compositions containing Compound 4 and MC3.

[14] = test system: hEPO expression; assay: hEPO expression in CD-1 mice compared with MC3; assay type: in vivo
Outline: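 Expression and clearance data were obtained for nanoparticle compositions with various test compounds, run in parallel with an MC3 composition.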

[15] = Lipid clearance: % dose remaining in liver of CD-1 mice; assay type: in vivo; details: intravenous, 0.5 mg/kg, CD-1 mouse, Table 8a
Outline: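 Mice (CD-1) received nanoparticle compositions formulated with the disclosed compounds at 0.5 mpk. Expressed hEPO was then quantified, and clearance was assessed alongside.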

[16] = Table 1f, Formulated with lipid:Chol:DOPE:PEG 1 40:38.5:20:1.5
[17] = Table 1e, row marked #: Formulated with lipid:Chol:PEG 1 50:47.5:2.5
[18] = Table 1f, row marked #: Formulated with lipid:Chol:PEG 1 50:47.5:2.5
[19] = Table 1d, row marked #: Formulated with lipid:Chol:PEG 1 50:47.5:2.5

SMILES: CCCCCCCCCCCCN(CCCCCCCCCCCC)CCN(CCCCCCCCCCCC)CC(=O)N1CCN(C(=O)CN(CCCCCCCCCCCC)CCCCCCCCCCCC)CC1 [Compound 11, 2-(Didodecylamino)-1-(4-(N-(2-(didodecylamino)ethyl)-N-dodecylglycyl)piperazin-1-yl)ethan-1-one]
hEPO concentration after administration of nanoparticle compositions [1]: comparable to MC3
tolerability ([2]; 2 mpk, i.v. (FIG. 8A), compared to KL22): improved tolerability as compared to KL22
LDLr dependence of luciferase expression [3]: LDLr independent lipid
LDL-c levels [4]: found to drop

SMILES: CCCCCCCCCCCCN(CCCCCCCCCCCC)CCN(CCCCCCCCCCCC)CCN1CCN(CCN(CCCCCCCCCCCC(=O)OC)CCCCCCCCCCCC(=O)OC)CC1 [Compound 16, Dimethyl 12,12′-((2-(4-(2-((2-(didodecylamino)ethyl)(dodecyl)amino)ethyl)piperazin-1-yl)ethyl)azanediyl)didodecanoate]
hEPO expression at each time point, rank among compositions of Table 6 [5]: lowest hEPO expression

SMILES: CCCCCCCCCCCCCCN(CCCCCCCCCCCCCC)CCN1CCN(CCN(CCCCCCCCC)CCN(CCCCCCCCC)CCCCCCCCC)CC1 [Compound 20, N^1-(2-(4-(2-(Ditetradecylamino)ethyl)piperazin-1-yl)ethyl)-N^1,N^2,N^2-trinonylethane-1,2-diamine]
total flux, rank among the compositions of Table 3 [6]: highest total flux

SMILES: CCCCCCCCCCCCN(CCCCCCCCCCCC)CCN(CCCCCCCCCCCC)CCN1CCN(CCN(CCCCCCCCC)CCCCCCCCC)CC1 [Compound 23, N^1-(2-(4-(2-(Dinonylamino)ethyl)piperazin-1-yl)ethyl)-N^1,N^2,N^2-tridodecylethane-1,2-diamine]
toxicity ([2]; 2 mg/kg dose): toxic
Lipid/MC3 Luc CD-1 (mice) [7]: several fold higher

Second part, led by results:

Purity % 25° C. no shaking t = 65 h ([8]; after storage for 65 h at 25° C., no shaking): 92%
Purity % 37° C. shaking t = 65 h ([8]; after storage for 65 h at 37° C., shaking): 91%
Purity % t = 0 h ([8]; beginning of the study, 25° C.): 90%
SMILES: CCCCCCCCCN(CCCCCCCCC)CCN(CCCCCCCCC)CC(=O)N1CCN(C(=O)CN(CCCCCCCCC)CCCCCCCC(=O)OC)CC1 [Compound 44, Methyl 8-((2-(4-(N-(2-(dinonylamino)ethyl)-N-nonylglycyl)piperazin-1-yl)-2-oxoethyl)(nonyl)amino)octanoate]

PDI [9, 16]: 0.20
Size (nm) [9, 16]: 126.0 nm
EE (%) [10, 16]: 98.5%
% Dose Remaining (liver, 24 h) ([12]; Table 8d): 42.86%
SMILES: CCCCCCCCCOC(=O)CCCCCCCN(CCCCCCCC(=O)OC(CCCCCCCC)CCCCCCCC)CCCCC(=O)OC(C)CC(C)OC(=O)CCCCN(CCCCCCCC(=O)OCCCCCCCCC)CCCCCCCC(=O)OC(CCCCCCCC)CCCCCCCC (stereo not drawn) [Compound 187, Di(heptadecan-9-yl) 8,8′-(26,28-dimethyl-11,24,30,43-tetraoxo-10,25,29,44-tetraoxa-19,35-diazatripentacontane-19,35-diyl)dioctanoate]
AUC ([11]; Table 8d): 5.22e+07 pg·h/mL

PDI [9, 16]: 0.12
Size (nm) [9, 16]: 78.0 nm
EE (%) [10, 16]: 97.5%
% Dose Remaining (liver, 24 h) ([12]; Table 8d): 117.31%
SMILES: CCCCCCCCCN(CCCCCCCCC)CCN(CCCCCCCCC)CC(=O)OC(C)C(C)OC(=O)CN(CCCCCCCCC)CCCCCCCCC (stereo not drawn) [Compound 188, 3-((N-(2-(dinonylamino)ethyl)-N-nonylglycyl)oxy)butan-2-yl dinonylglycinate]
AUC ([11]; Table 8d): 8.76e+06 pg·h/mL

PDI [9, 16]: 0.16
Size (nm) [9, 16]: 70.1 nm
EE (%) [10, 16]: 98.3%
% Dose Remaining (liver, 24 h) ([12]; Table 8d): 91.63%
SMILES: CCCCCCCCCN(CCCCCCCCC)CCN(CCCCCCCCC)CC(=O)OC(C)CC(C)OC(=O)CN(CCCCCCCCC)CCCCCCCCC (stereo not drawn) [Compound 189, 4-((N-(2-(Dinonylamino)ethyl)-N-nonylglycyl)oxy)pentan-2-yl dinonylglycinate]
AUC ([11]; Table 8d): 1.15e+07 pg·h/mL

PDI [9, 17]: 0.22
Size (nm) [9, 17]: 109.0 nm
PDI [9, 18]: 0.26
Size (nm) [9, 18]: 129.7 nm
PDI [9, 19]: 0.20
Size (nm) [9, 19]: 105.0 nm
EE (%) [10, 17]: 93.0%
EE (%) [10, 18]: 92.5%
EE (%) [10, 19]: 84.1%
% Dose Remaining 24 hr [15]: 64.65%
% Dose Remaining (liver, 24 h) ([12]; Table 8c): 58.41%
% Dose Remaining (liver, 24 h) ([12]; Table 8d): 54.04%
SMILES: CCCCCC=CCC=CCCCCCCCCC(CCCCCCCCC=CCC=CCCCCC)OC(=O)CCCN(C)C (stereo not drawn) [MC3, heptatriaconta-6,9,28,31-tetraen-19-yl 4-(dimethylamino)butanoate, reference compound]
GFP protein expression in liver cell types (IHC) [13]: observed in both hepatocytes and Kupffer cells
hEPO expression at each time point, rank among compositions of Table 6 [5]: highest hEPO expression
AUC (p/s*h) CD-1 mice 0.5 mpk ([14]; intramuscular, title: 0.01 mg/kg, Table 7f): 27727 p/s*h
AUC (p/s*h) CD-1 mice 0.5 mpk ([14]; subcutaneous, 0.5 mg/kg, Table 7g): 375994 p/s*h
AUC ([11]; Table 8c): 1.52e+07 pg·h/mL
AUC ([11]; Table 8d): 6.95e+08 pg·h/mL
AUC (mIU/mL*h) ([11]; lipid:Chol:PEG 1 50:47.5:2.5, Table 8e): 2.24E+07 mIU/mL*h
